Measurements: ChEMBL document CHEMBL4842345, “Design, synthesis and biological evaluation of tanshinone IIA-based analogues: Potent inhibitors of microtubule formation and angiogenesis” (Eur J Med Chem, 2021)
pIC50: −log10 of the molar value.

Assays:
HepG2 = assay: Antiproliferative activity against human HepG2 cells assessed as reduction in cell viability measured after 72 hrs by MTT assay; assay type: functional, cell-based; settings: HepG2, 72 h
HeLa = assay: Antiproliferative activity against human HeLa cells assessed as reduction in cell viability measured after 72 hrs by MTT assay; assay type: functional, cell-based
A549 = assay: Antiproliferative activity against human A549 cells assessed as reduction in cell viability measured after 72 hrs by MTT assay; assay type: functional, cell-based; settings: A549, 72 h
U-937 = assay: Antiproliferative activity against human U-937 cells assessed as reduction in cell viability measured after 72 hrs by MTT assay; assay type: functional, cell-based; settings: U-937, 72 h
MGC-803 = assay: Antiproliferative activity against human MGC-803 cells assessed as reduction in cell viability measured after 72 hrs by MTT assay; assay type: functional, cell-based; settings: MGC-803, 72 h
MCF7 = assay: Antiproliferative activity against human MCF7 cells assessed as reduction in cell viability measured after 72 hrs by MTT assay; assay type: functional, cell-based; settings: MCF7, 72 h
[1] = Kinetic solubility of the compound at pH 6.5 by nephelometry; assay type: physicochemical; settings: buffer, read-out: Kinetic_solubility
[2] = Metabolic stability in human liver microsomes assessed as degradation half life; assay type: ADME, Microsome; settings: liver microsomes
[3] = Intrinsic clearance in human liver microsome; assay type: ADME, microsomes; settings: liver microsomes, read-out: CLH
[4] = Kinetic solubility of the compound at pH 2 by nephelometry; assay type: physicochemical; settings: buffer, read-out: Kinetic_solubility

SMILES	pIC50 (HepG2)	pIC50 (HeLa)	pIC50 (A549)	pIC50 (U-937)	pIC50 (MGC-803)	pIC50 (MCF7)	solubility kinetic [1] [µg/mL]	half-life [2] [min]	microsomal CLint [3] [µL/min/mg]	solubility kinetic [4] [µg/mL]
Cc1cc2c(o1)-c1c(O)cccc1C(=O)C2=O	< 5.30	< 5.30	< 5.30	< 5.30	< 5.30	< 5.30				
COc1cccc2c1-c1oc(C)cc1C(=O)C2=O	5.32	5.68	5.56	5.49	< 5.30	< 5.30				
Cc1coc2c1C(=O)C(=O)c1cccc(O)c1-2	< 5.30	< 5.30	< 5.30	< 5.30	< 5.30	< 5.30				
Cc1coc2c1C(=O)C(=O)c1ccccc1-2	5.69	6.02	6.07	5.92	5.72	5.80				
COc1cccc2c1-c1occ(C)c1C(=O)C2=O	5.42	5.63	6.37	< 5.30	5.41	< 5.30				
Cc1coc2c1C(=O)C(=O)c1cc(Cl)ccc1-2	5.89	5.81	5.75	5.60	5.64	5.35				
Cc1coc2c1C(=O)C(=O)c1cc(O)ccc1-2	< 5.30	< 5.30	< 5.30	< 5.30	< 5.30	< 5.30				
COc1ccc2c(c1)C(=O)C(=O)c1c(C)coc1-2	< 5.30	5.55	6.03	5.44	5.40	< 5.30				
Cc1cc2c(o1)-c1ccc(O)cc1C(=O)C2=O	5.40	5.64	5.75	5.45	5.53	< 5.30				
Cc1coc2c1C(=O)C(=O)c1cc(C(C)C)ccc1-2	5.49	5.37	5.82	5.66	< 5.30	5.45				
Cc1coc2c1C(=O)C(=O)c1c-2ccc2c1CCCC2(C)C [TANSHINONE IIA]	5.31	5.46	5.66	< 5.30	< 5.30	< 5.30	< 5	10	45	< 5
Cc1cc2c(o1)-c1ccc3c(c1C(=O)C2=O)CCCC3(C)C	5.91	5.93	6.70	5.57	5.55	< 5.30				
Cc1cc2c(o1)-c1ccccc1C(=O)C2=O	5.56	5.82	5.52	5.80	5.45	5.89				
Cc1cc2c(o1)-c1ccc(C(C)C)cc1C(=O)C2=O	5.62	5.67	5.60	5.78	5.71	5.62				
COc1ccc2c(c1)C(=O)C(=O)c1cc(C)oc1-2	5.46	5.86	6.12	5.47	< 5.30	< 5.30				
